Results reported in the supplement of paper PMC6045584.
± gives the standard deviation of the averaged measurements.

Experiments:
SOTRASTAURIN/AEB071 = compound: CN1CCN(c2nc(C3=C(c4c[nH]c5ccccc45)C(=O)NC3=O)c3ccccc3n2)CC1 [SOTRASTAURIN/AEB071]; assay: area under dose-response curve of surviving fraction (unscaled, Aref=0) (surviving fraction x log10(nM)); higher = more resistant; settings: exposure time: 5 days; dose range 0.5-1000 nM
How it was run: (§1)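 Tumour cell lines in 384-well plates were exposed for five days to eight inhibitor concentrations from 0.5 to 1000 nM. Viability was read by CellTiter-Glo luminescence, normalised to DMSO-only wells, in three screens per line. Dose-response survival curves were fitted to surviving fractions by 3-parameter logistic regression in the drc R package. Area under the curve is the unscaled activity area (Aref = 0) over log10 dose.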

CRIZOTINIB = compound: C[C@@H](Oc1cc(-c2cnn(C3CCNCC3)c2)cnc1N)c1c(Cl)ccc(F)c1Cl [CRIZOTINIB]; assay: as above; settings: exposure time: 5 days; dose range 0.5-1000 nM
How it was run: as §1

OLAPARIB [1] = compound: T1, O=C(c1cc(Cc2n[nH]c(=O)c3ccccc23)ccc1F)N1CCN(C(=O)C2CC2)CC1 [OLAPARIB]; assay: surviving fraction relative to DMSO-only wells; higher = less growth inhibition; settings: exposure time: 5 days
How it was run: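 After seeding at 250–500 cells per well in 384-well plates and a 24-hour wait, log-phase tumour cell lines were exposed without interruption for five days to inhibitors at 0.5, 1, 5, 10, 50, 100, 500 and 1000 nM. CellTiter-Glo luminescence was recorded after 10 minutes at room temperature. Viability is reported as surviving fraction, the luminescence normalised to the median of DMSO-only wells.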

[2] = compound: CCn1c(C(=O)N(C2CC2)C2CC2)cc2c3c(ncn3C)c(Nc3cc(C)n(C)n3)nc21; assay: area under dose-response curve of surviving fraction (unscaled, Aref=0) (surviving fraction x log10(nM)); higher = more resistant; settings: exposure time: 5 days; dose range 0.5-1000 nM
How it was run: as §1

SORAFENIB = compound: CNC(=O)c1cc(Oc2ccc(NC(=O)Nc3ccc(Cl)c(C(F)(F)F)c3)cc2)ccn1 [SORAFENIB]; assay: as above; settings: exposure time: 5 days; dose range 0.5-1000 nM
How it was run: as §1

[3] = compound: COc1cc2ncnc(Nc3ccc(F)c(Cl)c3)c2cc1NC(=O)/C=C/CN1CCCCC1; assay: as above; settings: exposure time: 5 days; dose range 0.5-1000 nM
How it was run: as §1

[4] = compound: C[C@@H](Oc1cc(-c2cnn(C3CCNCC3)c2)cnc1N)c1c(Cl)ccc(F)c1Cl; assay: as above; settings: exposure time: 5 days; dose range 0.5-1000 nM
How it was run: as §1

ABIRATERONE = compound: C[C@]12CC[C@H](O)CC1=CC[C@@H]1[C@@H]2CC[C@]2(C)C(c3cccnc3)=CC[C@@H]12 [ABIRATERONE]; assay: as above; settings: exposure time: 5 days; dose range 0.5-1000 nM
How it was run: as §1

OLAPARIB [5] = compound: T1, OLAPARIB; assay: as above; settings: exposure time: 5 days; dose range 0.5-1000 nM
How it was run: as §1

XAV-939 = compound: Oc1nc(-c2ccc(C(F)(F)F)cc2)nc2c1CSCC2 [XAV-939]; assay: as above; settings: exposure time: 5 days; dose range 0.5-1000 nM
How it was run: as §1

Test System	area under dose-response curve (SOTRASTAURIN/AEB071)	area under dose-response curve (CRIZOTINIB)	surviving fraction (OLAPARIB [1]; 0.5 nM)	surviving fraction (OLAPARIB [1]; 1 nM)	surviving fraction (OLAPARIB [1]; 5 nM)	surviving fraction (OLAPARIB [1]; 10 nM)	surviving fraction (OLAPARIB [1]; 50 nM)	surviving fraction (OLAPARIB [1]; 100 nM)	surviving fraction (OLAPARIB [1]; 500 nM)	surviving fraction (OLAPARIB [1]; 1000 nM)	area under dose-response curve [2]	area under dose-response curve (SORAFENIB)	area under dose-response curve [3]	area under dose-response curve [4]	area under dose-response curve (ABIRATERONE)	area under dose-response curve (OLAPARIB [5])	area under dose-response curve (XAV-939)
CCK81 LARGE INTESTINE	2.85	2.36															
G292 BONE	3.33	3	1.01 ± 0.014	1.01 ± 0.037	1.01 ± 0.016	1.02 ± 0.017	0.977 ± 0.022	0.971 ± 0.046	0.872 ± 0.037	0.831 ± 0.02	3.3	3.26	3.03	2.88	3.4	3.17	3.14
HCC38 BREAST	3.03		1.13 ± 0.12	1.04 ± 0.039	1.05 ± 0.26	1.05 ± 0.22	0.656 ± 0.17	0.6 ± 0.094	0.441 ± 0.098	0.432 ± 0.074		4.12		3.21	4.04	2.57	3.17
HCC70 BREAST	3.82	3.69	1.15 ± 0.043	1.08 ± 0.038	1.13 ± 0.082	1.15 ± 0.049	1.1 ± 0.16	1.05 ± 0.064	0.983 ± 0.069	0.928 ± 0.12	3.28	3.81	3.17	3.26	3.59	3.59	
HMLE3 BREAST			1.01 ± 0.015	0.976 ± 0.039	1.09 ± 0.097	1.06 ± 0.057	0.972 ± 0.042	0.962 ± 0.12	0.911 ± 0.07	0.835 ± 0.072	3.12		3.01	2.86	3.42	3.22	3.15
HMT3552 BREAST		3.05	0.96	0.909	0.92	0.865	1.07	0.858	0.913	0.742							
HS57T BREAST			1.09 ± 0.06	1.11 ± 0.036	1.09 ± 0.05	1.13 ± 0.05	1.1 ± 0.022	1.04 ± 0.053	0.999 ± 0.024	0.914 ± 0.067							
HS578T BREAST	3.13		0.886 ± 0.076	0.911 ± 0.043	0.937 ± 0.14	0.853 ± 0.12	0.837 ± 0.079	0.87 ± 0.061	0.713 ± 0.093	0.705 ± 0.066	3.19	2.64		2.75		2.79	3.76
